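Here, GI50 denotes the concentration required for 50% inhibition of growth. Definition used: TGI = concentration required for complete inhibition of growth.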
Assays:
Experiment in all cases: DTP human tumour cell line panel, 384-well format
[1] = tested on: MALME-3M melanoma
[2] = tested on: HS 578T breast
[3] = tested on: TK-10 renal
[4] = tested on: MDA-MB-231 breast
[5] = tested on: BT-549 breast
[6] = tested on: HOP-92 NSCLC
[7] = tested on: OVCAR-3 ovarian
[8] = tested on: CCRF-CEM leukemia
[9] = tested on: HCT-15 colon
[10] = tested on: HCC-2998 colon
[11] = tested on: HT29 colon
[12] = tested on: SF-539 CNS
[13] = tested on: SF-268 CNS
[14] = tested on: SK-MEL-28 melanoma
[15] = tested on: HL-60(TB) leukemia
[16] = tested on: COLO 205 colon
[17] = tested on: SN12C renal
[18] = tested on: RXF 393 renal
[19] = tested on: LOX IMVI melanoma
[20] = tested on: SK-MEL-5 melanoma
[21] = tested on: T-47D breast
[22] = tested on: RPMI-8226 leukemia
[23] = tested on: OVCAR-5 ovarian
[24] = tested on: OVCAR-8 ovarian
[25] = tested on: MDA-MB-468 breast
[26] = tested on: IGROV1 ovarian
[27] = tested on: CAKI-1 renal
[28] = tested on: SK-OV-3 ovarian
[29] = tested on: PC-3 prostate
[30] = tested on: SNB-19 CNS
[31] = tested on: MDA-MB-435 melanoma
[32] = tested on: M14 melanoma
[33] = tested on: K-562 leukemia
[34] = tested on: MCF7 breast
[35] = tested on: NCI-H23 lung
[36] = tested on: OVCAR-4 ovarian
[37] = tested on: NCI-H460 NSCLC
[38] = tested on: U251 glioblastoma
[39] = tested on: EKVX NSCLC
[40] = tested on: SR leukemia
[41] = tested on: HOP-62 NSCLC
[42] = tested on: UACC-257 melanoma
[43] = tested on: NCI/ADR-RES ovarian
[44] = tested on: HCT-116 colon
[45] = tested on: KM12 colon
[46] = tested on: SW-620 colon
[47] = tested on: NCI-H322M lung

FC(F)(F)c1ccc(CNc2ccc(Cc3c[nH]c4ncc(Cl)cc34)cn2)cn1
GI50 [1]: 8.2 µM
TGI [1]: 17.4 µM
GI50 [2]: 2.15 µM
TGI [2]: 7.11 µM
GI50 [3]: 14.4 µM
TGI [3]: 28.6 µM
GI50 [4]: 13.7 µM
TGI [4]: 26.7 µM
GI50 [5]: 12.2 µM
TGI [5]: 25.5 µM
GI50 [6]: 8.41 µM
TGI [6]: 21.3 µM
GI50 [7]: 15.7 µM
TGI [7]: 29.8 µM
GI50 [8]: 6.19 µM
TGI [8]: 17.9 µM
GI50 [9]: 11.4 µM
TGI [9]: 23.9 µM
GI50 [10]: 13.8 µM
TGI [10]: 26.9 µM
GI50 [11]: 9.79 µM
TGI [11]: 23 µM
GI50 [12]: 11.2 µM
TGI [12]: 23.7 µM
GI50 [13]: 8.91 µM
TGI [13]: 21.7 µM
GI50 [14]: 9 µM
TGI [14]: 21.7 µM
GI50 [15]: 6.17 µM
TGI [15]: 16.3 µM
GI50 [16]: 14.9 µM
TGI [16]: 28.4 µM
GI50 [17]: 14 µM
TGI [17]: 27.1 µM
GI50 [18]: 4.54 µM
TGI [18]: 14.7 µM
GI50 [19]: 14.4 µM
TGI [19]: 27.7 µM
GI50 [20]: 6.22 µM
TGI [20]: 18.3 µM
GI50 [21]: 4.85 µM
TGI [21]: 16.1 µM
GI50 [22]: 6.96 µM
TGI [22]: 19.1 µM
GI50 [23]: 15.7 µM
TGI [23]: 29.6 µM
GI50 [24]: 10.3 µM
TGI [24]: 23.1 µM
GI50 [25]: 2.82 µM
TGI [25]: 9.15 µM
GI50 [26]: 13.5 µM
TGI [26]: 27.8 µM
GI50 [27]: 14.7 µM
TGI [27]: 28.8 µM
GI50 [28]: 12 µM
TGI [28]: 26 µM
GI50 [29]: 12.7 µM
TGI [29]: 25.7 µM
GI50 [30]: 15.9 µM
TGI [30]: 30.5 µM
GI50 [31]: 16.2 µM
TGI [31]: 30.1 µM
GI50 [32]: 13.3 µM
TGI [32]: 26.2 µM
GI50 [33]: 5.09 µM
TGI [33]: 17.2 µM
GI50 [34]: 12.5 µM
TGI [34]: 25.3 µM
GI50 [35]: 11 µM
TGI [35]: 23 µM
GI50 [36]: 9.12 µM
TGI [36]: 22.2 µM
GI50 [37]: 12.9 µM
TGI [37]: 26.1 µM
GI50 [38]: 14.2 µM
TGI [38]: 27.5 µM
GI50 [39]: 10.7 µM
TGI [39]: 23.7 µM
GI50 [40]: 2.13 µM
TGI [40]: 5.5 µM
GI50 [41]: 12.2 µM
TGI [41]: 25.5 µM
GI50 [42]: 12.4 µM
TGI [42]: 25.9 µM
GI50 [43]: 9.91 µM
TGI [43]: 21.9 µM
GI50 [44]: 12.8 µM
TGI [44]: 25.9 µM
GI50 [45]: 4.46 µM
TGI [45]: 14.2 µM
GI50 [46]: 15.1 µM
TGI [46]: 28.8 µM
GI50 [47]: 8.81 µM
TGI [47]: 21.6 µM

From PubChem BioAssay (NCI)
